How the values were obtained:
Format in all cases: physicochemical
[1] = Determination of viscosity (Example 121, flow time in syringe against reference sample); settings: 350 mgI/ml, 20° C.
Description: The apparatus consisted of a thermostated 10 μl graduated sample syringe connected to a conical shaped 100 μl sample vial. The syringe needle as well as a probe for temperature measurements (±0.2° C.) was inserted through an airtight septum at the top of the vial. Through the septum was also inserted a small tubing connected to an air syringe via a PTFE tubing.
To determine viscosity, 15≧75 μl of the sample liquid was placed at the bottom of the sample vial. The liquid was forced up into the sample syringe by a slight over pressure generated manually by the air syringe. When the syringe was almost filled, the over pressure was released so the liquid, forced only by gravity, could flow freely out from the syringe back into the vial. The time for the liquid surface to pass between the marks of e.g. 5 and 10 μl in the syringe was measured […]
The viscosity is calculated as follows: […]
ηS=Viscosity of the sample
ηR=Viscosity of a reference sample with known viscosity and with similar composition as the sample e.g. Iohexol or Iodixanol dS=Density of sample solution dR=Density of reference solution tS=Average time for sample surface to pass between two marks in the syringe tR=Corresponding time for reference sample
The results of these determinations of viscosity for various of the present Examples and two commercially available X-ray contrast media are shown in Table 1′ below. In all cases, the values refer to concentrations of 350 mgI/ml at a temperature of 20° C.

[2] = Viscosity in aqueous solution at 20° C. (Example 82, Tables 1 and 2); settings: for Viscosity 350 mgI/ml (CALCULATED): calculated for 350 mgI/ml; for Viscosity at 400 mgI/ml (CALCULATED): calculated for 400 mgI/ml
Description: The viscosities in aqueous solution at 20° C. for some further compounds described above were determined and are listed in Table 2. […]

[3] = Viscosity at 37° C. (Table 3); settings: for Viscosity at 350 mgI/ml (CALCULATED): calculated for 350 mgI/ml

Molecule	Viscosity [1] [mPas]	Viscosity 350 mgI/ml (CALCULATED) [2] [mPas]	Viscosity at 400 mgI/ml (CALCULATED) [2] [mPas]	also measured
N,N′-Bis(2,3-dihydroxybutyryl)-3,5-diamino-2,4,6-triiodomandeloamide [Example 101]	13.4	–	–	–
O=C(Nc1c(I)c(CO)c(I)c(NC(=O)C(O)C(O)CO)c1I)C(O)C(O)CO (centres unmarked) [Example 79, N,N′-Bis-(2,3,4-trihydroxybutanoyl)-3,5-diamino-2,4,6-triiodobenzyl alcohol]	–	10.4	17.2	Viscosity 20° C. ([2]; concentration 379 mgI/ml): 14.4 mPas; Viscosity 37° C. ([3]; 379 mgI/ml): 6.9 mPa·s; Viscosity at 350 mgI/ml (CALCULATED) [3]: 5.9 mPa·s
NC(=O)C(O)c1c(I)c(NC(=O)[C@H](O)[C@@H](O)CO)c(I)c(NC(=O)[C@H](O)[C@@H](O)CO)c1I (stereo partly drawn) [Example 104, N,N′-Bis(2R,3S,4-trihydroxybutyryl)-3,5-diamino-2,4,6-triiodomandeloamide]	17.0	–	–	–
CC1(C)OCC(CNC(=O)c2c(I)c(NC(=O)C3COC(C)(C)O3)c(I)c(C(C#N)O[Si](C)(C)C)c2I)O1 (centres unmarked) [Example 113, 5-(2,2-Dimethyl-1,3-dioxolane-4-carbamido)-3-(O-trimethylsilyl-cyanomethyl)-N-(2,2-dimethyl-1,3-dioxolane-4-methyl)-2,4,6-triiodobenzamide]	7.5	–	–	–
NC(=O)C(O)c1c(I)c(NC(=O)CO)c(I)c(NC(=O)[C@H](O)[C@H](O)CO)c1I (stereo partly drawn) [Example 106, N-(2R,3R,4-Trihydroxybutyryl)-N′-hydroxyacetyl-3,5-diamino-2,4,6-triiodomandeloamide]	8.8	–	–	–
Nc1c(I)c(NC(=O)C(O)CO)c(I)c(C(O)C(=O)NC(=O)C(O)CO)c1I (centres unmarked) [Example 99, N,N′-Bis(2,3-Dihydroxypropionyl)-3,5-diamino-2,4,6-triiodomandeloamide]	7.4	–	–	–
N-(2R,3S,4-Trihydroxybutyryl)-N′-hydroxyacetyl-3,5-diamino-2,4,6-triiodomandeloamide [Example 100]	9.7	–	–	–
O=C(NC(CO)C(O)CO)c1c(I)c(CO)c(I)c(NC(=O)C(O)C(O)CO)c1I (centres unmarked) [Example 81, 5-[N′-(2,3,4-Trihydroxybutanoyl)-amino]-3-hydroxymethyl-N-(1,3,4-trihydroxybut-2-yl)-2,4,6-triiodobenzamide]	–	12.2	21.5	Viscosity 20° C. ([2]; concentration 376 mgI/ml): 16.2 mPas; Viscosity 37° C. ([3]; 376 mgI/ml): 8.9 mPa·s; Viscosity at 350 mgI/ml (CALCULATED) [3]: 6.1 mPa·s
NC(=O)C(O)c1c(I)c(NC(=O)C(O)CO)c(I)c(C(=O)NCC(O)CO)c1I (centres unmarked) [Example 114, 5-(2,3-Dihydroxypropionyl)amino-3-N-(2,3-dihydroxypropyl)carbamido-2,4,6-triiodomandeloamide]	10.1	–	–	–
CC(O)C(=O)N(CCO)c1c(I)c(CO)c(I)c(C(=O)NCC(O)CO)c1I (centres unmarked) [Example 28, 5-[N′-(2-Hydroxyethyl)-2-hydroxypropionylamino]-3-hydroxymethyl-N-(2,3-dihydroxypropyl)-2,4,6-triiodobenzamide]	–	9.2	14.6	Viscosity 20° C. ([2]; concentration 404 mgI/ml): 15 mPas; Viscosity ([2]; iodine concentration 404 mgI/mL): 15 mPas
O=C(CO)Nc1c(I)c(CO)c(I)c(N(CC(O)CO)C(=O)CO)c1I (centres unmarked) [Example 7, N,N′-Bis(hydroxyacetyl)-N-(2,3-dihydroxypropyl)-3,5-diamino-2,4,6-triiodobenzylalcohol]	–	–	11.5	Viscosity 20° C. ([2]; concentration 361 mgI/ml): 8 mPas; Viscosity ([2]; iodine concentration 361 mgI/mL): 8.0 mPas
O=C(C(O)CO)N(CCO)c1c(I)c(CCO)c(I)c(N(CCO)C(=O)C(O)CO)c1I (centres unmarked) [Example 62, 3,5-Bis[N-(2-hydroxyethyl)-2,3-dihydroxypropionylamino]-2,4,6-triiodo-(2-hydroxyethyl)benzene]	–	–	14.3	Viscosity 20° C. ([2]; concentration 353 mgI/ml): 9 mPas
O=C(CO)Nc1c(I)c(CC(O)CO)c(I)c(N(CC(O)CO)C(=O)CO)c1I (centres unmarked) [Example 74, 5-Hydroxyacetamido-3-[N-(2,3-dihydroxypropyl)-hydroxyacetamido]-2,4,6-triiodo-(2,3-dihydroxypropyl)benzene]	–	9.3	15.8	Viscosity 20° C. ([2]; concentration 399 mgI/ml): 16 mPas
Nc1c(I)c(NC(=O)CO)c(I)c(C(O)C(=O)NC(=O)C(O)CO)c1I (centres unmarked) [Example 98, N-(2,3-Dihydroxypropionyl)-N′-hydroxyacetyl-3,5-diamino-2,4,6-triiodomandeloamide]	6.9	–	–	–
CC(O)C(=O)Nc1c(I)c(CO)c(I)c(C(=O)NC(CO)C(O)CO)c1I (centres unmarked) [Example 37, 5-(2-Hydroxypropionylamino)-3-hydroxymethyl-N-(1,3,4-tri-hydroxybut-2-yl)-2,4,6-triiodobenzamide]	–	–	15.6	Viscosity 20° C. ([2]; concentration 398 mgI/ml): 16 mPas; Viscosity 20° C. ([2]; concentration 458 mgI/ml): 30 mPas; Viscosity ([2]; iodine concentration 458 mgI/mL): 30 mPas
O=C(CO)N(CCO)c1c(I)c(CC(O)CO)c(I)c(N(CCO)C(=O)CO)c1I (centres unmarked) [Example 73, 3,5-Bis-[N,N′-(2-hydroxyethyl)-hydroxyacetamido]-2,4,6-triiodo-(2,3-dihydroxypropyl)benzene]	–	6.7	10.4	Viscosity 20° C. ([2]; concentration 396 mgI/ml): 10 mPas
O=C(NCC(O)CO)c1c(I)c(CO)c(I)c(NC(=O)C(CO)(CO)CO)c1I (centres unmarked) [Example 33, 5-(3-Hydroxy-2,2-dihydroxymethyl-propionylamino)-3-hydroxymethyl-N-(2,3-dihydroxypropyl)-2,46-triiodobenzamide]	–	–	22.9	Viscosity 20° C. ([2]; concentration 370 mgI/ml): 16 mPas; Viscosity ([2]; iodine concentration 370 mgI/mL): 16 mPas
O=C(NCCO)c1c(I)c(CO)c(I)c(N(CC(O)CO)C(=O)C(O)CO)c1I (centres unmarked) [Example 66, 5-[N′-(2,3-Dihydroxypropyl)-2,3-dihydroxypropionylamino]-3-hydroxymethyl-N-(2-hydroxyethyl)-2,4,6-triiodobenzamide]	–	9.3	15.2	Viscosity 20° C. ([2]; concentration 401 mgI/ml): 15 mPas
O=C(NC(CO)C(O)CO)c1c(I)c(CO)c(I)c(N(CC(O)CO)C(=O)CO)c1I (centres unmarked) [Example 36, 5-[N′-(2,3-Dihydroxypropyl)-hydroxyacetamido]-3-hydroxymethyl-N-(1,3 4-trihydroxybut-2-yl)-2,4.6-triiodobenzamide]	–	10.6	17.7	Viscosity 20° C. ([2]; concentration 382 mgI/ml): 15 mPas; Viscosity ([2]; iodine concentration 382 mgI/mL): 15 mPas
O=C(c1c(I)c(CO)c(I)c(N2CCCC(O)C2=O)c1I)N(CC(O)CO)CC(O)CO (centres unmarked) [Example 70, 5-(3-Hydroxy-2-oxo-1-piperidinyl)-3-hydroxymethyl-N,N-bis-(2,3-dihydroxypropyl)-2,4,6-triiodobenzamide]	–	–	27.8	Viscosity 20° C. ([2]; concentration 361 mgI/ml): 16 mPas
O=C(NCC(O)CO)c1c(I)c(CO)c(I)c(N(CCO)C(=O)C(O)CO)c1I (centres unmarked) [Example 30, 5-[N′-(2-Hydroxyethyl)-2,3-dihyroxypropionylamino]-3-hydroxymethyl-N-(2,3-dihydroxypropyl)-2,4,6-triiodobenzamide]	–	13.4	23.3	Viscosity 20° C. ([2]; concentration 391 mgI/ml): 21 mPas; Viscosity ([2]; iodine concentration 391 mgI/mL): 21 mPas
CN(CC(O)CO)C(=O)c1c(I)c(CO)c(I)c(N(CCO)C(=O)C(O)CO)c1I (centres unmarked) [Example 47, 5-[N′-(2-Hydroxyethyl)-2,3-dihydroxypropionylamino]-3-hydroxymethyl-N-methyl-N-(2,3-dihydroxypropyl)-2,4,6-triiodobenzamide]	–	–	16.4	Viscosity 20° C. ([2]; concentration 447 mgI/ml): 28 mPas
O=C(NCC(O)CO)c1c(I)c(CO)c(I)c(NC(=O)C(O)C(O)CO)c1I (centres unmarked) [Example 80, 5-[N′-(2,3,4-Trihydroxybutanoyl)amino]-3-hydroxymethyl-N-(2,3-dihydroxypropyl)-2,4,6-triiodobenzamide]	–	9.4	14.8	Viscosity 20° C. ([2]; concentration 444 mgI/ml): 23 mPas; Viscosity 37° C. ([3]; 444 mgI/ml): 11 mPa·s; Viscosity at 350 mgI/ml (CALCULATED) [3]: 5.2 mPa·s
O=C(Nc1c(I)c(CO)c(I)c(N(CCO)C(=O)C(O)CO)c1I)C(O)CO (centres unmarked) [Example 13, N,N′-Bis(2,3-dihydroxypropionyl)-N-(2-hydroxyethyl)-3,5-diamino-2,4,6-triiodobenzylalcohol]	–	–	12.2	Viscosity 20° C. ([2]; concentration 398 mgI/ml): 12 mPas; Viscosity ([2]; iodine concentration 398 mgI/mL): 12 mPas
O=C(CO)Nc1c(I)c(CO)c(I)c(N(CCO)C(=O)CO)c1I [Example 5, N,N′-Bis(hydroxyacetyl)-N-(2-hydroxyethyl)-3,5-diamino-2,4,6-triiodobenzylalcohol]	–	6.9	10.0	Viscosity 20° C. ([2]; concentration 435 mgI/ml): 13 mPas; Viscosity 20° C. ([2]; concentration 512 mgI/ml): 29 mPas; Viscosity ([2]; iodine concentration 435 mgI/mL): 13 mPas
